Assays:
Assay type in all cases: cell-based, human
[1] = test system: caspases 3/7, 8, and 9 in MCF-7 cells; experiment: Caspase-Glo assay, MCF-7; details: IC50 value, 24 h; vs vehicle
Experimental: The activities of caspases 3/7, 8, and 9 were measured by using the Caspase-Glo Assay according to the manufacturer’s guidelines (Caspase-Glo 3/7, 8, and 9 Assay Systems, Promega Corporation, Madison, WI, USA), as already described. The luminescence was detected in a plate-reading luminometer (Synergy H1 Hybrid Reader, BioTek) for 30 min to 3 h (λex/em = 490/570 nm). Results were reported as signal-to-noise ratio (background was determined from the culture medium without cells). The experiments were performed in triplicate.

[2] = test system: cytochrome c in MCF-7 cells; experiment: Mitochondria staining and cytochrome c detection, MCF-7; details: IC50 value, 24 h
Experimental: (§1) The MitoTracker Deep Red FM probe (MitoTracker Mitochondrion-Selective Probes, Invitrogen European Headquarters, Paisley, PA4 9RF, UK) was used for mitochondrial staining, as previously described. For immunofluorescence analysis, the cells were seeded and further processed, as reported by Iacopetta et al.. The primary antibodies used were: rabbit anti-β-Actin and vimentin (Santa Cruz Biotechnology, Dallas, TX, USA), mouse anti cytochrome c and NF-κB p65 (Abcam, Cambridge, UK), diluted 1:100 in bovine serum albumin (BSA) 2% overnight at 4 °C. The secondary antibodies were: Alexa Fluor® 488 conjugate goat-anti-rabbit and Alexa Fluor® 568 conjugate goat-anti-mouse (Thermo Fisher Scientific, MA, USA), diluted 1:500 and incubated for 2h at 37 °C. DAPI 0.2 μg/mL (Sigma Aldrich, Milan, Italy) was used for nuclei staining. […] All the images were acquired and processed using the LAS-X software.

[3] = test system: β-actin in MDA-MB-231 cells; experiment: Actin immunofluorescence, MDA-MB-231; details: 24 h; compound 1 at its IC50 value, LA 0.1 µM
Experimental: as §1

[4] = test system: cytochrome c in MDA-MB-231 cells; experiment: Mitochondria staining and cytochrome c detection, MDA-MB-231; details: IC50 value, 24 h
Experimental: as §1

MDA-MB-231 cells = experiment: TUNEL assay, MDA-MB-231; details: IC50, 24 h
Excerpt: Images are representative of three independent experiments.

Hek-293 cells = experiment: MTT assay, normal Hek-293; details: up to the concentration of 200 μM

SMILES | caspase-3 and -7 activity, MCF-7 [1] | caspase-8 activity, MCF-7 [1] | caspase-9 activity, MCF-7 [1] | cytochrome c localization, MCF-7 [2] | actin organization in MDA-MB-231 cells [3] | cytochrome c localization, MDA-MB-231 [4] | apoptosis (TUNEL), MDA-MB-231 (MDA-MB-231 cells) | cytotoxicity against the normal Hek-293 cells (in words) (Hek-293 cells)
CC(=O)[O-].Cn1c(Cl)c(Cl)n(CC(O)c2ccccc2)[c]1=[Au+]=[c]1n(C)c(Cl)c(Cl)n1CC(O)c1ccccc1 (centres unmarked) [Compound 6, Bis [4,5-dichloro-(N-methyl, N’(2-hydroxy-2-phenyl-ethyl)imidazole-2-ylidine]gold(I)] acetate] | clear increase | significant rise | no increase | cytochrome c is localized within mitochondria | – | – | – | –
Cn1ccn(CC([O-])c2ccccc2)[c]1=[Au+]=[c]1n(C)ccn1CC([O-])c1ccccc1.[Cl-].[Na+].[Na+] (centres unmarked) [Compound 1] | – | – | – | – | altered actin bundles organization | cytochrome c is localized within mitochondria | induced apoptosis | complete lack of cytotoxicity
